# In patent US20110130425A1, “Use of H3 Histaminergic Agonists for the Treatment of Addiction to Drugs of Abuse” (priority 2009, published 2011):
# “Also recorded” adds a separate entry of the source.
# Columns and labels:
# alcohol relapse behavior = assay: Alcohol Deprivation Effect (ADE) paradigm; assay type: in vivo, rat; details: L-histidine; rats
# Procedure: The effects of a H3 histaminergic ligand, such as L-histidine, are tested in our well-established model of relapse-like drinking behavior.
# Alcohol Deprivation Effect (ADE) paradigm: All rats are given continuous access to tap water and to 5%, 10% and 20% (v/v) ethanol solutions in their home cages. Spillage and evaporation is minimized by the use of self-made bottles. All drinking solutions are renewed weekly and the positions of the four bottles are changed to avoid location preferences. After eight weeks of continuous access, ethanol solutions are repeatedly withdrawn for 3-21 days (deprivation phases) every four weeks until the rats become alcohol-dependent (as measured by a sucrose and quinine tests). The effects of a H3 histaminergic ligand are then tested on the expression of the alcohol deprivation effect (=relapse behavior). A second ADE study is initiated 3 months later in order to study the persistence of treatment efficacy.
# Past pharmacological studies in home cage drinking models were hampered by the fact that measurements were performed at 24 hour intervals. Thus the exact temporal profile of drug treatment could not be assessed under home cage drinking conditions and sometimes pharmacological effects became masked by the use of measurements every 24 hours. This problem has now been solved in our lab by the use of a fully-automated drinkometer system. […]
# [1] = tested on: relapse into cocaine seeking; assay: Relapse phase: rehabilitation test, relapse induced by a single dose of cocaine; assay type: in vivo, rat; details: L-histidine 500 mg/kg i.p. one hour before; cocaine 0.5 mg/kg; vs saline; rats
# Text: III. Relapse Phase: The relapse phase is studied by using a rehabilitation test. In this phase, the desire of the rats for the drug is again induced by the administration of a single dose of drug. At this instant, the rat again feels the desire to obtain the drug, and so it again begins to press on the lever to obtain the drug, but the drug is not available to the animal.
# The behavior of the rats was also studied during the relapse phase, after the animals had gone through the extinction phase. In the extinction phase, the animals received no reward (dose of cocaine) when they pressed the lever. After a minimum of six extinction sessions, lasting 2 hours each session, carried out on consecutive days, the lever-pressing behavior of the rats diminished at least 20 times in comparison to the start of the extinction sessions.
# When the number of times that the rats pressed the lever decreased, the animals were subjected to 4 hour rehabilitation sessions (i.e., relapse sessions). These rehabilitation sessions consisted initially of extinction sessions of 3 hours, followed by the automatic release, by an injection, of a saline solution or different doses of cocaine. During the fourth hour, the behavior of the animals was studied in regard to the number of times that they pressed the lever after the administration of the different doses of cocaine (0 mg/kg, 0.5 mg/kg and 2 mg/kg). The number of times that the lever was pressed increased in proportion to the dose of cocaine administered (cocaine at 0.5 mg/kg or 2 mg/kg administered intravenously, or saline in controls) (FIG. 8). However, this increase in the number of times that the animals pressed the lever was not rewarded with the administration of more cocaine. The number of times that the rats pressed the lever was indicative of the rat's need to find the drug. Even so, the pressing of the lever was not rewarded with more cocaine, which differentiates this stage from that corresponding to self-administration. […]
# dopamine release = assay: Nicotine stimulation of dopamine release in striatal miniprisms; assay type: cell-based, Sprague-Dawley rat; details: 0.5 mM L-histidine preincubation; 100 nM nicotine, 15 mM K+; rat striatal miniprisms; vs controls
# Procedure: One male Sprague-Dawley rat obtained from Charles-River weighing 200-250 g is used. The rat brain is rapidly removed and placed in ice-cold oxygen-saturated (O2/CO2:95%/5%) Krebs bicarbonate buffer (124 mM NaCl, 0.8 mM KCl, 1.25 mM NaH2PO4, 1.2 mM KH2PO4, 0.67 mM MgSO4, 2.6 mM CaCl2, 10 mM glucose and 27.5 mM NaHCO3, pH 7.4). The striata is dissected and cut using a Mcllwain™ Mechanical Tissue Copper (Stoelting Co., Wood Dale, Ill.) into miniprisms of 0.3 mm/side. The microprims are transferred to ice-cold Krebs buffer, gently centrifuged, and the buffer changed to remove damaged tissue and cellular debris.
# Brain miniprisms are distributed into 24 flat-bottom Eppendorf tubes and preincubated for 2 hours in 0.25 mL Krebs buffer at 37° C. using an Eppendorf Thermomixer® under a O2/CO2 atmosphere. Then the medium is replaced with fresh Krebs buffer at 37° C. with or without 0.5 mM L-histidine prepared in the same buffer. This concentration of L-histidine is similar to that reached in plasma of L-histidine-treated humans (Block et al., 1967). […]
# All samples are then cooled down on ice and quickly centrifuged at 1000×g for 1 minute to separate buffer from tissue. […] An automatic autosampler Merck-Hitachi L-7200 and an automated fraction collector Gilson FC203B automatically recover internal standard dopamine peaks when UV detected into scintillation vials. […]
structure (smiles),measurement,setting,value
N[C@@H](Cc1c[nH]cn1)C(=O)O [L-histidine],relapse into alcohol drinking after alcohol deprivation (alcohol deprivation effect),alcohol relapse behavior,decreases relapse
same,lever pressing after relapse induced by a single dose of cocaine,[1],caused a decrease in the pressing on the lever; also recorded: diminished significantly
same,dopamine release caused by nicotine stimulation,dopamine release,less dopamine release
